Experimental data taken from ChEMBL document CHEMBL1909046, “DrugMatrix in vitro pharmacology data”.

Legend:
[1] = DRUGMATRIX: Atrial Natriuretic Factor (ANF) radioligand binding (ligand: [125I] ANF (rat)); type: cell membranes, Cavia porcellus, Dunkin-Hartley, Adrenal gland, Membrane; details: Not Active = under 50% inhibition at 10 µM
[2] = DRUGMATRIX: Sigma2 radioligand binding (ligand: [3H] Ifenprodil); type: cell membranes, Rattus norvegicus, Wistar, Brain, Membrane; details: Not Active = under 50% inhibition at 10 µM
[3] = DRUGMATRIX: Glutamate, NMDA, Agonism radioligand binding (ligand: [3H] CGP-39653); type: cell membranes, Rattus norvegicus, Wistar, Cerebral cortex, Membrane; details: Not Active = under 50% inhibition at 10 µM
Acetylcholinesterase = Acetylcholinesterase (Homo sapiens, UniProt P22303); experiment: DRUGMATRIX: Acetylcholinesterase enzyme inhibition (substrate: acetylthiocholine); type: cell-based, HEK293; details: Not Active = under 50% inhibition at 10 µM
Chain of Acetylcholinesterase (P22303 whole entry): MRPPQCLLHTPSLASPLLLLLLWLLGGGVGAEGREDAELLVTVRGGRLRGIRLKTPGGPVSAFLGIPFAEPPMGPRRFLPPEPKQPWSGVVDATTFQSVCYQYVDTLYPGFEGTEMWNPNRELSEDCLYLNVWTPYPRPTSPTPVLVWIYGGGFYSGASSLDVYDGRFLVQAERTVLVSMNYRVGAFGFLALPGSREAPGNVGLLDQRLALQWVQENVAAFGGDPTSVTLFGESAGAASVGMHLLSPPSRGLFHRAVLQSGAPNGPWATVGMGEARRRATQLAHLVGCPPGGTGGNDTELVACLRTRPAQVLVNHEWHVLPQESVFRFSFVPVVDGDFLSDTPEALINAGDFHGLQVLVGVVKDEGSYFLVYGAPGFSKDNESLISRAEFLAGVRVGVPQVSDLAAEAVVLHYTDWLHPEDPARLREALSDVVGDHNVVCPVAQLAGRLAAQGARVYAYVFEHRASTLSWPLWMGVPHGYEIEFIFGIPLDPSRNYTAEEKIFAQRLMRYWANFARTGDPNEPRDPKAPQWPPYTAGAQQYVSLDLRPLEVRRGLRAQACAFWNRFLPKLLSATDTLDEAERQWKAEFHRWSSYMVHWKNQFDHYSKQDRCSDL

Adenosine receptor A1 = target: T1, Adenosine receptor A1 (Homo sapiens, UniProt P30542); type: cell membranes, CHO, Membrane; details: cho;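 note: radioligand binding assay at the adenosine A1 receptor, with DPCPX serving as the labelled ligand; in other assays of this panel Not Active means under 50% inhibition at 10 µM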
T1 sequence (P30542 whole entry): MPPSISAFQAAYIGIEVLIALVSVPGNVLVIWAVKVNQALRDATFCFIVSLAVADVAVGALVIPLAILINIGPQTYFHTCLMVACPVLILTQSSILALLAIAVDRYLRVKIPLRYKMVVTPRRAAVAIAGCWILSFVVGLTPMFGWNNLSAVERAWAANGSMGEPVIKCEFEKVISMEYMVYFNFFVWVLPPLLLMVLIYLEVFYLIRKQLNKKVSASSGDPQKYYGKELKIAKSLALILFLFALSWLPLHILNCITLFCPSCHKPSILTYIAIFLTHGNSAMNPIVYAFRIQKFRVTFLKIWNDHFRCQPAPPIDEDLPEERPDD

Adenosine receptor A2a = Adenosine receptor A2a (Homo sapiens, UniProt P29274); experiment: DRUGMATRIX: Adenosine A2A radioligand binding (ligand: […]); type: cell membranes, HEK293, Membrane; details: hek293; Not Active = under 50% inhibition at 10 µM
Chain of Adenosine receptor A2a (P29274 whole entry): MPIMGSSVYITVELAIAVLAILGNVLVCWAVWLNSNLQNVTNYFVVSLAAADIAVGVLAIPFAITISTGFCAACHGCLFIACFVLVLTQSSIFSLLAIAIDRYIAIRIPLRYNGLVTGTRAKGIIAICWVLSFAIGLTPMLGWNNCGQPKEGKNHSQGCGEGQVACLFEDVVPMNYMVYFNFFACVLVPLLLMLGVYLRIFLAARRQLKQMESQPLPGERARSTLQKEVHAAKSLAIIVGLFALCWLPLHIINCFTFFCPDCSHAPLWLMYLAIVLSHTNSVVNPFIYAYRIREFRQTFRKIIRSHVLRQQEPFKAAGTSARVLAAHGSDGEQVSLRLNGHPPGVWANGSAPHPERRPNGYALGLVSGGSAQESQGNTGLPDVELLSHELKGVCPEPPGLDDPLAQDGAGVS

Molecule	IC50 [1]	Ki [1]	IC50 [2]	Ki [2]	IC50 [3]	Ki [3]	IC50 (Acetylcholinesterase; hek293)	IC50 (Adenosine receptor A1)	IC50 (Adenosine receptor A2a)	Ki (Acetylcholinesterase; hek293)	Ki (Adenosine receptor A1)	Ki (Adenosine receptor A2a)	IC50 (Acetylcholinesterase; read-out: IC50) [µM]
CO[C@H]1[C@@H](O)[C@H](N)[C@@H](O[C@H]2O[C@H]([C@H](C)N)CC[C@H]2N)[C@H](O)[C@@H]1N(C)C(=O)CN [ASTROMICIN]	Not Active	Not Active	Not Active	Not Active	Not Active	Not Active	Not Active	Not Active	Not Active	–	–	–	–
CCn1cc(C(=O)O)c(=O)c2cc(F)c(N3CCNCC3)nc21 [ENOXACIN]	Not Active	Not Active	Not Active	Not Active	Not Active	Not Active	Not Active	Not Active	Not Active	–	–	–	–
CCC(=O)O[C@H]1[C@H](O[C@@H]2[C@@H](C)[C@H](O[C@H]3C[C@@](C)(OC)[C@@H](O)[C@H](C)O3)[C@@H](C)C(=O)O[C@H](CC)[C@@](C)(O)[C@H](O)[C@@H](C)C(=O)[C@H](C)C[C@@]2(C)O)O[C@H](C)C[C@@H]1N(C)C [ERYTHROMYCIN PROPIONATE]	Not Active	Not Active	Not Active	Not Active	Not Active	Not Active	Not Active	Not Active	Not Active	–	–	–	–
COBALT(II) ACETYLACETONATE	Not Active	Not Active	Not Active	Not Active	Not Active	Not Active	Not Active	Not Active	Not Active	Not Active	Not Active	Not Active	–
N[C@@H](Cc1ccc(F)cc1)C(=O)O	Not Active	Not Active	Not Active	Not Active	Not Active	Not Active	Not Active	Not Active	Not Active	–	–	–	–
O=C(O)Cc1ccc(-c2ccccc2)cc1 [FELBINAC]	Not Active	Not Active	Not Active	Not Active	Not Active	Not Active	Not Active	Not Active	Not Active	–	–	–	–
NC[C@H]1O[C@H](O[C@H]2[C@H](O)[C@@H](O[C@H]3O[C@H](CO)[C@@H](O)[C@H](N)[C@H]3O)[C@H](N)C[C@@H]2N)[C@H](O)[C@@H](O)[C@@H]1O [KANAMYCIN]	Not Active	Not Active	Not Active	Not Active	Not Active	Not Active	Not Active	Not Active	Not Active	–	–	–	–
N=C(N)N/N=C/c1c(Cl)cccc1Cl [GUANABENZ]	Not Active	Not Active	Not Active	Not Active	Not Active	Not Active	Not Active	Not Active	Not Active	–	–	–	–
C[C@]12CCC(=O)C=C1CC[C@@H]1[C@@H]2[C@@H](O)C[C@@]2(C)[C@H]1CC[C@]2(O)C(=O)CO [HYDROCORTISONE]	Not Active	Not Active	Not Active	Not Active	Not Active	Not Active	Not Active	Not Active	Not Active	–	–	–	–
Nc1nc(N)nc(NC2CC2)n1 [CYROMAZINE]	Not Active	Not Active	Not Active	Not Active	Not Active	Not Active	Not Active	Not Active	Not Active	–	–	–	–
OCCO [ETHYLENE GLYCOL]	Not Active	Not Active	Not Active	Not Active	Not Active	Not Active	Not Active	Not Active	Not Active	–	–	–	–
CCN[C@@H](C)Cc1cccc(C(F)(F)F)c1 [DEXFENFLURAMINE]	Not Active	Not Active	Not Active	Not Active	Not Active	Not Active	Not Active	Not Active	Not Active	–	–	–	–
C[C@]12C/C(=C/O)C(=O)C[C@@H]1CC[C@@H]1[C@@H]2CC[C@@]2(C)[C@H]1CC[C@]2(C)O [OXYMETHOLONE]	Not Active	Not Active	Not Active	Not Active	Not Active	Not Active	Not Active	Not Active	Not Active	–	–	–	–
C=C(CC)C(=O)c1ccc(OCC(=O)O)c(Cl)c1Cl [ETHACRYNIC ACID]	Not Active	Not Active	Not Active	Not Active	Not Active	Not Active	Not Active	Not Active	Not Active	–	–	–	–
CCOC(=O)[C@H](CCc1ccccc1)N[C@@H](C)C(=O)N1Cc2ccccc2C[C@H]1C(=O)O	Not Active	Not Active	Not Active	Not Active	Not Active	Not Active	Not Active	Not Active	Not Active	–	–	–	–
CCc1oc2ccccc2c1C(=O)c1cc(Br)c(O)c(Br)c1 [BENZBROMARONE]	Not Active	Not Active	Not Active	Not Active	Not Active	Not Active	Not Active	Not Active	Not Active	–	–	–	–
CC[C@H]1OC(=O)[C@H](C)[C@@H](O[C@H]2C[C@@](C)(OC)[C@@H](O)[C@H](C)O2)[C@H](C)[C@@H](O[C@@H]2O[C@H](C)C[C@H](N(C)C)[C@H]2O)[C@](C)(OC)C[C@@H](C)C(=O)[C@H](C)[C@@H](O)[C@]1(C)O [CLARITHROMYCIN]	Not Active	Not Active	Not Active	Not Active	Not Active	Not Active	Not Active	Not Active	Not Active	–	–	–	–
CC(=O)O[C@]1(C(C)=O)CC[C@H]2[C@@H]3C=C(C)C4=CC(=O)CC[C@]4(C)[C@H]3CC[C@@]21C [MEGESTROL ACETATE]	Not Active	Not Active	Not Active	Not Active	Not Active	Not Active	Not Active	Not Active	Not Active	–	–	–	–
CC(C)C[C@H]1C(=O)N2CCC[C@H]2[C@]2(O)O[C@](NC(=O)[C@@H]3C=C4c5cccc6[nH]c(Br)c(c56)C[C@H]4N(C)C3)(C(C)C)C(=O)N12 [BROMOCRIPTINE]	Not Active	Not Active	Not Active	Not Active	Not Active	Not Active	Not Active	Not Active	Not Active	–	–	–	–
CC(=O)O[C@]1(C(C)=O)CC[C@H]2[C@@H]3C=C(Cl)C4=CC(=O)[C@@H]5C[C@@H]5[C@]4(C)[C@H]3CC[C@@]21C [CYPROTERONE ACETATE]	Not Active	Not Active	Not Active	Not Active	Not Active	Not Active	Not Active	Not Active	Not Active	–	–	–	–
CC(C)(Oc1ccc(C2CC2(Cl)Cl)cc1)C(=O)O (stereo unspecified) [CIPROFIBRATE]	Not Active	Not Active	Not Active	Not Active	Not Active	Not Active	Not Active	Not Active	Not Active	–	–	–	–
Cc1cnc(C(=O)NCCc2ccc(S(=O)(=O)NC(=O)NC3CCCCC3)cc2)cn1 [GLIPIZIDE]	Not Active	Not Active	Not Active	Not Active	Not Active	Not Active	Not Active	Not Active	Not Active	–	–	–	–
CC(C)(C)c1ccc(S(=O)(=O)/C=C/C#N)cc1 [BAY-11-7085]	Not Active	Not Active	Not Active	Not Active	Not Active	Not Active	Not Active	Not Active	Not Active	–	–	–	–
Cc1cccc(Nc2ccccc2C(=O)O)c1C [MEFENAMIC ACID]	Not Active	Not Active	Not Active	Not Active	Not Active	Not Active	Not Active	Not Active	Not Active	–	–	–	–
NC[C@@H]1O[C@H](O[C@H]2[C@@H](O)[C@H](O[C@@H]3[C@@H](O)[C@H](N)C[C@H](N)[C@H]3O[C@H]3O[C@H](CN)[C@@H](O)[C@H](O)[C@H]3N)O[C@@H]2CO)[C@H](N)[C@@H](O)[C@@H]1O [FRAMYCETIN]	Not Active	Not Active	Not Active	Not Active	Not Active	Not Active	Not Active	Not Active	Not Active	–	–	–	–
O=C(O)c1cccnc1 [NIACIN]	Not Active	Not Active	Not Active	Not Active	Not Active	Not Active	Not Active	Not Active	Not Active	–	–	–	–
CC[C@]1(O)CC[C@H]2[C@@H]3CCC4=CCCC[C@@H]4[C@H]3CC[C@@]21C	Not Active	Not Active	Not Active	Not Active	Not Active	Not Active	–	Not Active	Not Active	–	–	–	6.5
